The results in this text go back to ChEMBL document CHEMBL2385071, “Synthesis and biological investigation of coumarin piperazine (piperidine) derivatives as potential multireceptor atypical antipsychotics” (J Med Chem, 2013).

The target of one data set is D(3) dopamine receptor (Homo sapiens, UniProt P35462). Briefly: Binding affinity to dopamine D3 receptor (unknown origin).
For data set [1], the target named is T1, 5-hydroxytryptamine receptor 1A (Homo sapiens, UniProt P08908).
T1 sequence (P08908 whole entry): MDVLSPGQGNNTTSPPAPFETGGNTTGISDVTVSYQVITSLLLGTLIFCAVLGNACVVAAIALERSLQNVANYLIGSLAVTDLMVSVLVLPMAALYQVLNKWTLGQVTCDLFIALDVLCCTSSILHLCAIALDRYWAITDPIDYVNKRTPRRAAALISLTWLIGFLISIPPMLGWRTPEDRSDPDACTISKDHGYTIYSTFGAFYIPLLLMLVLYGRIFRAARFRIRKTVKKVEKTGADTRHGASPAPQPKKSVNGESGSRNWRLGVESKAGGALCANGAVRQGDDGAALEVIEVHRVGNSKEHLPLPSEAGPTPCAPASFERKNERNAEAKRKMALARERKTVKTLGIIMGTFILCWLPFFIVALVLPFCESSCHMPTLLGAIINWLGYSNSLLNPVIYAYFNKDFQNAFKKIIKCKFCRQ
The experiment in a line: Binding affinity to 5HT1A receptor (unknown origin).

Another data set has as its target D(2) dopamine receptor (Homo sapiens, UniProt P14416).
Data set [2] deals with T2, Alpha-1A adrenergic receptor (Homo sapiens, UniProt P35348).
T2 sequence (P35348 whole entry): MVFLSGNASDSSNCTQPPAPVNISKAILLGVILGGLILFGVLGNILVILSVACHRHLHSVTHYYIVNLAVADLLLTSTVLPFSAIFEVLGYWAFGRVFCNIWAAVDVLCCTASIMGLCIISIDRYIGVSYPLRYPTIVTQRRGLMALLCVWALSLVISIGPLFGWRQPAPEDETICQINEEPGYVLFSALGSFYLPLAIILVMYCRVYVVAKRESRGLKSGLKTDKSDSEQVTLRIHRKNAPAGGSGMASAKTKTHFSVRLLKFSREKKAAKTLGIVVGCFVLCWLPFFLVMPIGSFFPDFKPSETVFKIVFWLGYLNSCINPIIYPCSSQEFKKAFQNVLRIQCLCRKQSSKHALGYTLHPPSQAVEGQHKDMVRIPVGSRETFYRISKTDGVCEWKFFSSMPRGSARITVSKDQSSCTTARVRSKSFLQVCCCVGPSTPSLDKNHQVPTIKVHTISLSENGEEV
Briefly: Binding affinity to alpha-1A adrenergic receptor (unknown origin). The conditions noted are these: read-out: pA2 (converted).

In data set [3] the target is 5-hydroxytryptamine receptor 2A (Homo sapiens, UniProt P28223). The experiment in a line: Binding affinity to 5HT2A receptor (unknown origin).
The test system of data set [4] is Rattus norvegicus. Briefly: Antipsychotic activity in po dosed rat assessed as reduction in conditioned avoidance response after 60 mins. The class given is functional. The following applies: 1 h.
For data set [5], the system named is Mus musculus. The experiment in a line: Toxicity in mouse assessed as weight gain at 0.06 to […], po for 28 days. It is filed as organism-based. The arrangement: dose 0.06-0.16 mg/kg, route oral. The following applies: in vivo, 672 h.
Data set [6] relates to Rattus norvegicus. Briefly: Toxicity in rat assessed as QT interval prolongation at 30 mg/kg, po by electrophysiology assay. It is filed as organism-based. Also on record: dose 30 mg/kg, route oral. The following applies: in vivo.
The species entered for data set [7] is Mus musculus. Briefly: animal or person. The conditions noted are these: po.
The species entered for data set [8] is Mus musculus. The experiment in a line: animal or person. The conditions noted are these: po. The source holds these as a separate data set.
Description: Antipsychotic activity in po dosed mouse assessed as reduction in apomorphine-induced climbing behavior administered for 30 mins prior to apomorphine-challenge measured at 10 to 30 mins post-dose

Sequence of D(2) dopamine receptor (P14416 whole entry): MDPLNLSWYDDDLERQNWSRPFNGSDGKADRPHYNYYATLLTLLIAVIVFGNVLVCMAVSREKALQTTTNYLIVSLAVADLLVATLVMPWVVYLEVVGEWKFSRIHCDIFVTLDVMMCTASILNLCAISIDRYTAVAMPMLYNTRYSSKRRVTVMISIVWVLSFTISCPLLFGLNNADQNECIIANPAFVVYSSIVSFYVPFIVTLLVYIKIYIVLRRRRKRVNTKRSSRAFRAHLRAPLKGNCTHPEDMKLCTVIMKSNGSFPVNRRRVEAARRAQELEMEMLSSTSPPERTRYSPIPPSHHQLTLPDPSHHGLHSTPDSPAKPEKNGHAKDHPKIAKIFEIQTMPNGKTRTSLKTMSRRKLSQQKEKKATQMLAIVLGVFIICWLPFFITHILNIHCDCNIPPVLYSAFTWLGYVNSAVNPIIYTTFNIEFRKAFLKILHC
Sequence of D(3) dopamine receptor (P35462 whole entry): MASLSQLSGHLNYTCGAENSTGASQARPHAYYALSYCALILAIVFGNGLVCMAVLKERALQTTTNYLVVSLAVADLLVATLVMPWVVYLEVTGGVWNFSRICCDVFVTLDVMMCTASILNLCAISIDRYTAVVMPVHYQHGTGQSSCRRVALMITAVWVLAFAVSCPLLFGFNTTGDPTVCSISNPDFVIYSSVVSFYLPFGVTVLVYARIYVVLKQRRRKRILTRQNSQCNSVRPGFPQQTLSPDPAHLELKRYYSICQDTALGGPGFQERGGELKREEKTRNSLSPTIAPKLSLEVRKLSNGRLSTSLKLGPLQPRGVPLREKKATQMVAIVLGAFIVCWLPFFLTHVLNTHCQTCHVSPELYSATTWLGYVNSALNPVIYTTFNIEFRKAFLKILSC
Sequence of 5-hydroxytryptamine receptor 2A (P28223 whole entry): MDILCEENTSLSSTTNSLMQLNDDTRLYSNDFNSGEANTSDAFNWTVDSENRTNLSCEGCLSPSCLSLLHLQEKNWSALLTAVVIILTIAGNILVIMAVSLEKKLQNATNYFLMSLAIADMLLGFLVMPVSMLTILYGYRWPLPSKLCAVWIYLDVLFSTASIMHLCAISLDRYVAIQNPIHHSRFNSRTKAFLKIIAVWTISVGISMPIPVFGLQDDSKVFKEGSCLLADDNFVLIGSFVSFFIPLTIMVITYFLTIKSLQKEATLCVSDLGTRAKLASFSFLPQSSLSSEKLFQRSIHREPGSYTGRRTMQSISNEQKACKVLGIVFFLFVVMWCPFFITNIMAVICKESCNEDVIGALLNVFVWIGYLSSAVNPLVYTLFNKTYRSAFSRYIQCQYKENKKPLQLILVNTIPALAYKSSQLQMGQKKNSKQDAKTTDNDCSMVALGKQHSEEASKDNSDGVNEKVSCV

For orientation: Ki means the dissociation constant of the complex between target and ligand, obtained from inhibition or displacement. The low end stands for a stronger hold on the target, the high end for a looser hold on the target. As to `Cc1cc(=O)oc2cc(OCCCN3CCN(c4ccccc4)CC3)ccc12`, the Ki on D(3) dopamine receptor was found to be 18.9 nM; in data set [1], 0.79 nM; on D(2) dopamine receptor, 10.8 nM.
On to `COc1ccccc1N1CCN(CCCOc2ccc3c(C)cc(=O)oc3c2)CC1`, for which the Kb in [2] is 0.851 nM. In addition, the Ki was 174 nM in [3] and 11.7 nM on D(2) dopamine receptor.
As usually defined, the ED50 is the dose at which the effect has come halfway, by size or by number of responders. Turning to `Cc1nc2n(c(=O)c1CCN1CCC(c3noc4cc(F)ccc34)CC1)CCCC2` [RISPERIDONE], the ED50 came to 0.48 mg/kg in the data set on Rattus norvegicus [4], 0.01 mg/kg in the data set listed under Mus musculus [7] and 0.02 mg/kg in the data set listed under Mus musculus [8]. Further, the Activity result with Mus musculus [5] and in the data set on Rattus norvegicus [6] was “Toxic” throughout.
